Where “and” joins values, the source holds several entries; their conditions need not be identical. Equal entries are not always repeated.
How the values were obtained:
[1] = tested on: STZ-induced central sensitization in Sprague-Dawley rats; test: PWT (von Frey), streptozotocin rat model of central sensitization (Example 4); format: in vivo
Description: Sprague-Dawley rats were fasted for 4-6 hours before being injected intraperitoneally with 45 mg/kg STZ. This was performed for all experimental groups, except the naive group. In order to prevent hypoglycaemic death, rats received 10% sucrose water as the sole water source for the first 48 hours after injection. In order to ensure only those rats considered diabetic (i.e., having non-fasting plasma glucose levels of >250 mg/dL) were included in the study, blood glucose was measured at 72 hours after the STZ injection.
Four weeks after STZ injection, the rats were randomised into treatment groups. This delay between STZ injection and treatment allows the establishment of chronic pain (allodynia) associated with central sensitization. […] 5% lidocaine cream (positive control) was applied only once to both hind paws of the rats 30 minutes before measurement of PWT.
The rats were split into 8 study groups, with those in the experimental groups (1-4) having an average body weight of about 225 g, and those in the control groups (5-8) having an average body weight of about 335 g, as follows: • 1. Group 1: naive rats (n=5) • 2. Group 2: STZ only (n=6) • 3. Group 3: STZ plus vehicle (n=6) • 4. […] Group 5: STZ plus oral vehicle (n=8) • 6. Group 6: STZ plus 0.7% sulindac hydrogel (n=7) • 7. Group 7: STZ plus 5% lidocaine cream (n=8) • 8.

[2] = tested on: NTG-induced migraine in mice; test: PWT (von Frey), NTG-induced migraine mouse model, intraperitoneal clinical compounds (Example 15); settings: 30 min after single i.p. dose given 30 min after NTG; topiramate 30 mg/kg, sumatriptan 600 μg/kg, propranolol 10 mg/kg, gabapentin 30 mg/kg
Description: In line with the earlier Examples, migraine was induced using 0.4 mg of NTG administered sublingually in the form of a finely crushed 0.4 mg NTG tablet (Greenstone Brand).
A single intraperitoneal dose of topiramate (30 mg/kg), sumatriptan (600 μg/kg), propranolol (10 mg/kg), gabapentin (30 mg/kg) or vehicle was administered 30 min after the induction of migraine, at the indicated doses.
Group 1: baseline (i.e, no NTG treatment) • 2. Group 2: vehicle • 3. Group 3: topimarate • 4. Group 4: sumatriptan • 5. Group 5: propanolol • 6. Group 6: gabapentin
Mechanical allodynia was determined using the method of von Frey filaments in line with that performed in the earlier Examples. The PWT test was performed 30 minutes after compound or vehicle control administration. The mechanical threshold, expressed as g, indicates the force of the von Frey filament to which the animal reacted.

[3] = tested on: NTG-induced chronic migraine in mice; test: PWT (von Frey), NTG-induced chronic migraine model, oral (Example 16)
Description: In particular, mice receive sublingual NTG 0.4 mg in the form of a finely crushed 0.4 mg NTG tablet (Greenstone Brand) every two days, receiving a total of five doses. For control mice, an NTG placebo (Practi-Nitroglycerin Sublingual 0.4 mg Simulated Medication tablet) was administered in the same way.
Group 1: placebo NTG (i.e, no NTG treatment, n=8) • 2. Group 2: NTG (n=8) • 3. Group 3: NTG+vehicle (n=8) • 4. […] Group 5: NTG+sulindac (n=8)
Mechanical allodynia was determined using von Frey filaments in line with that performed in the earlier Examples. The PWT test was performed prior to NTG (or placebo NTG) administration to determine baseline values, as indicated. […] The mechanical threshold, expressed as g, indicates the force of the von Frey filament to which the animal reacted.

[4] = tested on: NTG-induced migraine in C57BL/6J mice; test: PWT (von Frey), NTG-induced migraine mouse model, topical (Example 13); settings: confirmation of NTG model
Description: Specifically, instead of the intraperitoneal injection of NTG, a finely crushed 0.4 mg NTG tablet (Greenstone Brand) was administered sublingually. As a control, a Practi-Nitroglycerin Sublingual 0.4 mg Simulated Medication tablet was used.
For determining mechanical allodynia, pain threshold responses were measured using the well-established method of von Frey filaments in line with that performed in the earlier Examples.
The PWT test, assessing mechanical allodynia, was performed 30 minutes after treatment. The mechanical threshold, expressed as g, indicates the force of the von Frey filament to which the animal reacted.

[5] = tested on: paclitaxel-induced pain associated with central sensitization in C57BL/6J mice; test: Mechanical allodynia (von Frey), paclitaxel-induced pain, topical PS 8% (Example 2); format: in vivo, mouse
Text: (§1) Food and water were available ad libitum.
(§2) Paw withdrawn, licking or shaking were considered positive responses.

[6] = tested on: paclitaxel-induced central sensitization in C57/BL/6J mice; test: Cold allodynia (acetone test), paclitaxel model (Example 3); format: in vivo, mouse; settings: after paclitaxel treatment
Description: To determine the outcome of treatment, assessment of mechanical allodynia was performed. […] Both methods of assessing allodynia are described in Toma W, et al. Neuropharmacology 2017; 117:305-15. Mechanical and cold allodynia are determined at least one day apart in the same animal.
The acetone test was used. Briefly, acetone was applied onto the plantar surface of each hind paw. The time each mouse spent licking, lifting, and/or shaking the hind paw recorded over 60 seconds was the score for cold allodynia. Measurements were performed on day-8 (before the first paclitaxel injection), the day of starting treatment (day 0) and then on day 15.

[7] = tested on: paclitaxel-induced CIPN in C57BL/6J mice; test: PWT (von Frey), mouse model of CIPN, oral administration (Example 5); format: in vivo; settings: day 7; oral gavage three times a day for 7 days, PS 50 mg/kg, sulindac 33 mg/kg
Text: CIPN was induced in mice with chemotherapeutic agents using established protocols (Carozzi et al, 2010; Currie et al, 2019; Eldridge et al, 2020). […] This dosing regimen of paclitaxel produces pain associated with CIPN with time courses that are similar to those of pain after paclitaxel administration in cancer patients.
Group 1: naive mice (i.e. no paclitaxel, n=8) • 2. Group 2: paclitaxel only (n=8) • 3. Group 3: paclitaxel plus vehicle (n=8) • 4. […] Group 5: paclitaxel plus sulindac (n=8)
The PWT test was performed on day 7.

[8] = tested on: paclitaxel-induced central sensitization in C57/BL/6J mice
Description: Regarding the treatment with lidocaine: 5% lidocaine cream (a positive control) was applied once to both hind paws of the mice 30 minutes before measurement of PWT.
Briefly, for mechanical allodynia, pain threshold responses were measured using the well-established method of von Frey filaments in line with that performed in the earlier Examples. The PWT test was performed on day-8 (before the first dose of paclitaxel), the day of starting treatment (day 0, at which central sensitization was fully established) and day 14 (treatment continued until day 15). The mechanical threshold, expressed as g, indicates the force of the von Frey filament to which the animal reacted.

[9] = tested on: paclitaxel-induced central sensitization in C57/BL mice; test: Paw withdrawal threshold (von Frey), paclitaxel model, topical PS (Example 1); settings: day 10, about 30 min after last application; PS 8% hydrogel topically to both hind paws 3 times a day for 10 days
[10] = PS and metabolites in proximal and distal half of the sciatic nerve (Example 25); format: in vivo, mouse; settings: mouse, in vivo
Description: In a separate experiment we studied 8 mice with paclitaxel-induced PN treated with PS 8% ointment 3×/d for 2 wks. Mice were euthanized as above 30 minutes after the last dose of PS. From these mice we harvested both sciatic nerves dividing each into proximal and distal halves, and combined the corresponding halves of every two animals for assay of drug levels.

[11] = tested on: NTG-induced chronic migraine in mice; test: PWT (von Frey), NTG-induced chronic migraine model, intraperitoneal topiramate and sumatriptan (Example 17); format: in vivo, mouse
Description: The NTG-induced chronic migraine model was used as described previously.
sumatriptan (600 μg/kg), or vehicle was administered.
. Group 1: NTG+vehicle (n=8) • 2. Group 2: NTG+topiramate (n=8) • 3. Group 3: NTG+sumatriptan (n=8)

[12] = tested on: oxaliplatin-induced pain associated with central sensitization in C57BL/6J mice; test: Mechanical allodynia (von Frey), oxaliplatin-induced pain, topical PS 8% (Example 2); format: in vivo, mouse; settings: day 0, in the two study groups respectively; cumulative 30 mg/kg i.p.
Text: as §1
(§3) Protocol for the Treatment of Established Pain Associated with Central Sensitization with PS
as §2

[13] = tested on: chronic constriction injury-induced peripheral neuropathy in C57BL/6J mice; test: PWT (von Frey), chronic constriction injury model of PTPN, topical (Example 7); settings: day 14, PS 5% gel or sulindac 0.7% gel on left paw three times a day for 14 days, pregabalin once by oral gavage 1 h before
Description: Group 1: ligation only (i.e, surgical control with no treatment, n=5-7) • 2. Group 2: vehicle control (n=5-7) • 3. […] Group 4: 0.7% sulindac (n=5-7) • 5.
Briefly, for determining mechanical allodynia, pain threshold responses were measured using the well-established method of von Frey filaments in line with that performed in the earlier Examples. The PWT test was performed on day 14. The mechanical threshold, expressed as g, indicates the force of the von Frey filament to which the animal reacted.

[14] = tested on: vincristine-induced pain associated with central sensitization in C57BL/6J mice; test: Mechanical allodynia (von Frey), vincristine-induced pain, topical PS 8% (Example 2); format: in vivo, mouse
Text: as §1, §3, §2

[15] = Baseline, prior to NTG administration
[16] = Post-compound administration, 30 min after single i.p. dose, topiramate 30 mg/kg, sumatriptan 600 μg/kg

For CN(N=O)C(=O)N[C@H]1C(O)O[C@H](CO)[C@@H](O)[C@@H]1O (mixture of isomers) [STZ, streptozotocin], the “PWT, gm Mean ± SEM” value ([1]; week 7, PS 8% hydrogel to both hind paws 3 times a day for 3 weeks from week 4 after STZ) was 15.7 ± 0.84 gm.

With NCC1(CC(=O)O)CCCCC1 [Gabapentin, gabapentin] the “PWT, g Mean ± SEM” value [2] was 1.44 ± 0.25 g.

In the case of O=[N+]([O-])OCC(CO[N+](=O)[O-])O[N+](=O)[O-] [NTG, nitroglycerin], the “PWT, g Mean ± SEM” value [3, 15] is reported as 1.95 ± 0.18 g, the “PWT, g Mean ± SEM” value ([3]; Day 11, orally once a day for 11 days concurrent with NTG, PS 50 mg/kg, sulindac 33 mg/kg) is reported as 0.66 ± 0.11 g and the “PWT, g 30 min Mean ± SEM” value ([4]; 30 min after sublingual NTG 0.4 mg) is reported as 0.70 ± 0.12 g. The “PWT, g 60 min Mean ± SEM” value ([4]; 60 min after sublingual NTG 0.4 mg) was 0.51 ± 0.05 g.

In the case of CC(=O)O[C@H]1C(=O)[C@@]2(C)[C@H]([C@H](OC(=O)c3ccccc3)[C@]3(O)C[C@H](OC(=O)[C@H](O)[C@@H](NC(=O)c4ccccc4)c4ccccc4)C(C)=C1C3(C)C)[C@]1(OC(C)=O)CO[C@@H]1C[C@@H]2O [Paclitaxel, paclitaxel, reference compound], the “mechanical allodynia score, mean±SEM” value ([5]; day 0 (initiation of treatment), paclitaxel-induced pain) is reported as 0.78 ± 0.08 g, the “mechanical allodynia score, mean±SEM” value ([5]; day 16, PS 8% ointment 3x/day to hind paws) is reported as 0.57 ± 0.05 g and the “reduction of mechanical allodynia scores by paclitaxel” value ([5]; paclitaxel administered over 12 days, cumulative 32 mg/kg i.p.) is reported as roughly 85%. For the same molecule, the “cold allodynia score (acetone test)” value [6] was 7.1 ± 0.4 s, the “PWT, g Mean ± SEM” value [7] was 0.53 ± 0.03 g and the “mechanical allodynia score, mean±SEM” value ([8]; day 0, after paclitaxel, central sensitization fully established) was 0.55 ± 0.05 g. The “PWT, % baseline Mean ± SEM” value [9] was 86.75 ± 5.42 % baseline.

In the case of CC(C)NCC(O)COc1cccc2ccccc12 (stereo not drawn) [Propanolol, propranolol], the “PWT, g Mean ± SEM” value [2] is reported as 1.37 ± 0.14 g.

With CC1=C(CC(=O)O)c2cc(F)ccc2/C1=C\c1ccc(S(C)(=O)=O)cc1 [Sulindac sulfone, sulindac sulfone] the “Distal half of sciatic nerve, mean ± SEM” value [10] was 0.9 ± 0.2 µM, the “Fold difference (distal vs proximal)” value [10] was 4.5 fold and the “Proximal half of sciatic nerve, μM, mean ± SEM” value [10] was 0.2 ± 0.08 µM.

In the case of CNS(=O)(=O)Cc1ccc2[nH]cc(CCN(C)C)c2c1 [Sumatriptan, sumatriptan], the “PWT, g Mean ± SEM” value [11, 15] is reported as 1.90 ± 0.06 g, the “PWT, g Mean ± SEM” value ([11]; Day 12 (pre-treatment)) is reported as 0.57 ± 0.02 g and the “PWT, g Mean ± SEM” value [11, 16] is reported as 1.33 ± 0.17 g. The “PWT, g Mean ± SEM” value [2] was 1.34 ± 0.12 g.

In the case of CC1(C)O[C@@H]2[C@@H](CO[C@@]3(COS(N)(=O)=O)OC(C)(C)O[C@@H]23)O1 [Topiramate, topiramate], the “PWT, g Mean ± SEM” value [11, 15] is reported as 2.40 ± 0.24 g, the “PWT, g Mean ± SEM” value ([11]; Day 12 (pre-treatment)) is reported as 0.60 ± 0.00 g and the “PWT, g Mean ± SEM” value [11, 16] is reported as 1.76 ± 0.11 g. For the same molecule, the “PWT, g Mean ± SEM” value [2] was 1.40 ± 0.14 g.

For CCN(CC)CC(=O)Nc1c(C)cccc1C [lidocaine], the “PWT, gm Mean ± SEM” value ([1]; 0.7% sulindac hydrogel 3 times a day for 1 week, 5% lidocaine cream once 30 min before, pregabalin 10 mg/kg orally once 1 h before) was 26.0 ± 1.8 gm and the “PWT, g Mean ± SEM” value ([8]; day 14, PS hydrogel 5% or 0.7% sulindac 3 times a day, 5% lidocaine cream once 30 min before, pregabalin 10 mg/kg orally once 1 h before) was 1.48 ± 0.12 g.

With O=C1[O][Pt]2([NH][C@@H]3CCCC[C@H]3[NH]2)[O]C1=O [oxaliplatin, reference compound] the “reduction of allodynia score during oxaliplatin administration” value [12] was 65% and 56%.

In the case of CC(C)C[C@H](CN)CC(=O)O [pregabalin, reference compound], the “PWT, g Mean ± SEM” value [13] is reported as 1.1 ± 0.10 g and the “PWT, g Mean ± SEM” value ([13]; listed as Pregabalin) is reported as 1.1 ± 0.10 g.

With CC[C@]1(O)C[C@H]2CN(CCc3c([nH]c4ccccc34)[C@@](C(=O)OC)(c3cc4c(cc3OC)N(C=O)[C@H]3[C@@](O)(C(=O)OC)[C@H](OC(C)=O)[C@]5(CC)C=CCN6CC[C@]43[C@@H]65)C2)C1 [vincristine] the “mechanical allodynia score, mean±SEM” value ([14]; day 0) was 0.7 ± 0.07 g, the “reduction of mechanical allodynia score by vincristine” value ([14]; day 0 vs day -7, three groups, cumulative 3 mg/kg i.p.) was 61%-65% and the “mechanical allodynia score, mean±SEM” value ([14]; day 16) was 0.8 ± 0.09 g.

Source: patent US20250345350A1, “TREATING PAIN ASSOCIATED WITH CENTRAL SENSITIZATION” (Medicon Pharmaceuticals, Inc., priority 2022, published 2025)
